Test results as given in patent publication EP0752872B1, “NADH OXIDASE AS A TARGET IN DIAGNOSIS AND THERAPY” (Morré, D. James, priority 1994, dated 1995).

Test system: Protein disulfide-thiol interchange activity of HeLa plasma membrane
Assay: Protein disulfide-thiol interchange (RNAse activity with cCMP as substrate)
Format: biochemical, human
Protocol: Estimation of protein disulfide isomerase- (PDI) like activity. Two methods were employed to determine PDI or PDI-like activity.
In the first method, ribonuclease A activity was measured using a spectrophotometric assay based on cCMP as RNAse substrate. Scrambled RNAse ([…]) was incubated together with 0.45 mM cCMP in 50 Mm Tris-MES buffer, pH 6.5, at 30°C in a final volume of 3 ml. […] A variation of this assay was to preincubate scrambled RNAse with transitional endoplasmic reticulum for 20 min in the presence or absence of 1 µM all-trans retinol (using ethanol as control) and in the presence or absence of 1 µM reduced or oxidized glutathione or a mixture of both. After this 20 min of "reactivation" of RNAse, cCMP was added to a final concentration of 0.45 mM to initiate the reaction. The increase of the absorbance at 296 nm was recorded over 25 min and the concentrations of cCMP were determined (E = 0.19 mM^-1cm^-1). Spectrophotometric measurements were with a Hitachi U3210 spectrophotometer with a thermostatic cell compartment maintained at 30°C with continuous stirring.
Preparation of scrambled RNAse substrate. To prepare the oxidized, denatured RNAse substrate (scrambled RNAse), native RNAse A (Sigma, Type 1-AS from bovine pancreas) (30 µg/ml) was incubated 1 h at 35°C in 50 mM Tris-acetate, pH 8.6, containing 9 M urea and 130 mM DTT.
Protein concentration was estimated from spectrophotometric measurement at 280 nm using native RNAse A as standard. For preparation of scrambled RNAse, the reduced RNAse was diluted to 0.5 mg/ml with 0.1 M acetic acid. Solid urea was then added to a final concentration of 10 M after which 0.1 M sarcosine hydrochloride was added and the pH adjusted to 8.5 with 1 M Tris. The mixture then was incubated in the dark for 2-3 days during which time the protein was randomly oxidized. The scrambled product was recovered by acidification to pH 4 with glacial acetic acid and elution from Sephadex G-25 in 0.1 M acetic acid. Fractions containing protein were pooled, adjusted to pH 8 and stored at 4°C.

COc1cc(CNC(=O)CCCC/C=C/C(C)C)ccc1O [capsaicin]
Protein disulfide-thiol interchange activity: .95 nmoles/min/mg protein
